Blank lines part the entries; values can stand above or below the molecule they belong to.
Tests used:
SIRT2 [1] = target: T1, SIRT2 (Homo sapiens, UniProt Q8IXJ6); assay: Fluorescence-based demyristoylation assay (BSA-Assay); assay type: biochemical
T1 construct: For assay experiments, strep-tagged human SIRT1134−747 and SIRT256-356 were expressed and purified as previously; Strep-tag; made in house; host or cells: E. coli BL21 Star (DE3)
T1 sequence (Q8IXJ6 56-356 limits assumed): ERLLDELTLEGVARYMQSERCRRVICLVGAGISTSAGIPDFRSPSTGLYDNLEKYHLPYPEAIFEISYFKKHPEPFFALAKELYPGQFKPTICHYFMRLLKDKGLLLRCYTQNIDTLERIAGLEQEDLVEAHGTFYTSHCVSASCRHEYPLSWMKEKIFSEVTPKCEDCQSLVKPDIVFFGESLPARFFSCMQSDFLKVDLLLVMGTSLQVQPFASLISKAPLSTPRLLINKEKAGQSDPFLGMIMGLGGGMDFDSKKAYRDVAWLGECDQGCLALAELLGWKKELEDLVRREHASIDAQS
Procedure: Determination of IC50 values (SIRT2) via fluorescence-based demyristoylation assay (BSA-Assay) The fluorescence-based demyristoylation assay was conducted in a continuous manner in a black 384-well microplate (OptiPlate-384 F, PerkinElmer) with a total volume of 40 µL per well and a final DMSO concentration of 5% (v/v), following a published procedure.[9] A mixture of 14 µL SIRT2 (final concentration of 1 nM) in assay buffer (20 mM Tris, 150 mM NaCl, […], pH 7.8) freshly supplemented with 2 mg/mL of BSA, 14 µL of substrate (F4, KM = 33 ± 5 nM[9], final concentration of 40 nM) and 2 µL of inhibitor solution (final concentration of 100 µM – 0.002 µM, serial 1:2 or 1:4 dilutions) was incubated at 25 °C and 350 rpm for 5 min. Samples with 5% (v/v) DMSO instead of inhibitor were measured as a positive control, and samples with assay buffer and 5% (v/v) DMSO instead of SIRT2 were measured as a negative control. The reaction was started with the addition of 10 µL NAD+ (final concentration of 500 µM) and the product formation was immediately monitored by the change of the fluorescence intensity at 25 °C for 20 min. For NAD+ preincubation experiments, instead of the substrate, 10 µL of NAD+ (final concentration of 500 µM) was added to the solution and incubated at 25 °C and 350 rpm for 15 min. The reaction was started with the addition of 14 µL substrate (final concentration of 40 nM) and the product formation was immediately monitored by the change of the fluorescence intensity at 25 °C every 60 s for 20 min using a microplate reader (λEx = 485 nm, λEm = 530-10 nm, BMG POLARstar Optima, BMG Labtech, Germany).
The activity was normalized using the positive control as 100% and the negative control as 0%. The normalized activity (v/v0) was plotted as a function of the logarithm of the inhibitor concentration [I], and a nonlinear fit was performed according to the following equation to determine the IC50 value.[9] […]

SIRT2 [2] = target: T1, SIRT2; assay: Fluorescence-based deacetylation assay (ZMAL-assay), SIRT2; assay type: biochemical; details: 37 °C, assay limit 0.10 µM, read-out: SIRT2 (deac.) IC50
Procedure: (§1) Determination of IC50 values (SIRT1, SIRT2, SIRT3) via fluorescence-based deacetylation assay […]
(§2) The fluorescence-based deacetylation assay was conducted in a black 384-well microplate (OptiPlate-384 F, PerkinElmer) with a total volume of 30 µL per well and a final DMSO concentration of 2% (v/v) according to a […]
(§3) concentration of 100 nM) in assay buffer (50 mM Tris, 137 mM NaCl, 2.7 mM KCl, 1m MgCl2, 0.01% Tween, 0.05 mg/mL BSA, 0.2 mM TCEP, pH 8.0), 5 µL of substrate (ZMAL, final concentration of 10.5 µM), 5 µL of NAD+ (final concentration of 500 µM) and 10 µL of inhibitor solution (final concentration of 30 µM – 0.014 µM, serial 1:3 dilutions) was incubated at 37 °C and 300 rpm for 4 h. A solution of trypsin (final concentration of 0.5 mg/mL) and nicotinamide (final concentration of 4 mM) was added and incubated at 37 °C and 300 rpm for 30 min to stop the reaction. Samples with 2% (v/v) DMSO instead of inhibitor were prepared as a positive control, and samples with 2% (v/v) DMSO instead of SIRT enzyme were prepared as a negative control. Fluorescence intensity was measured with a microplate reader (λEx = 380-10 nm, λEm = 460 nm, BMG POLARstar Optima, BMG Labtech, Germany). IC50 values were then determined using a nonlinear regression fit with Origin Pro 2019 software. All experiments were performed at least in duplicates. […]

SIRT1 = target: T2, SIRT1 (Homo sapiens, UniProt Q96EB6); assay: Fluorescence-based deacetylation assay (ZMAL-assay), SIRT1; assay type: biochemical; details: 37 °C, assay limit 0.10 µM; for IC50: read-out: SIRT1 (deac.) IC50
T2 construct: For assay experiments, strep-tagged human SIRT1134−747 and SIRT256-356 were expressed and purified as previously; Strep-tag; made in house; host or cells: E. coli BL21 Star (DE3)
T2 sequence (Q96EB6 134-747 limits assumed): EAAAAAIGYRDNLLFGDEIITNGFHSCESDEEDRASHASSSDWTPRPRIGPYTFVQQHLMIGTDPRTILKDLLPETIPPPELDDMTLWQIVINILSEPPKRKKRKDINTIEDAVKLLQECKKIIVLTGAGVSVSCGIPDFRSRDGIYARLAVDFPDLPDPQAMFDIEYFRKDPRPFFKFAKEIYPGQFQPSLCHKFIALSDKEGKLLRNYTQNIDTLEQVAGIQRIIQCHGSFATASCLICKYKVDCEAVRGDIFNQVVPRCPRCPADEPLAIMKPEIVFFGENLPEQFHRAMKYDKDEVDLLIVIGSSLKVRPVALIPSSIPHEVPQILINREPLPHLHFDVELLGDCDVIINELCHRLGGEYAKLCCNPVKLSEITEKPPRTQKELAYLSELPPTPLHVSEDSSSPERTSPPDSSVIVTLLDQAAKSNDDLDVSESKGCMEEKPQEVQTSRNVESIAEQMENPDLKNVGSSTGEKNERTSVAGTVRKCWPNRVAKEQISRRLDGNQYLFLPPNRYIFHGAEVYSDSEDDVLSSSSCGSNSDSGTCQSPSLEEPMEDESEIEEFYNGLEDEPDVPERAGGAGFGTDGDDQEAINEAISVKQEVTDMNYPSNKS
Procedure: as §1, §2, §3

SIRT3 = target: T3, SIRT3 (Homo sapiens, UniProt Q9NTG7); assay: Fluorescence-based deacetylation assay (ZMAL-assay), SIRT3; assay type: biochemical; details: 37 °C, assay limit 0.10 µM; for IC50: read-out: SIRT3 (deac.) IC50
T3 construct: Human SIRT3118-395 was expressed and purified as previously described.[5]; made in house
T3 sequence (Q9NTG7 118-395 limits assumed): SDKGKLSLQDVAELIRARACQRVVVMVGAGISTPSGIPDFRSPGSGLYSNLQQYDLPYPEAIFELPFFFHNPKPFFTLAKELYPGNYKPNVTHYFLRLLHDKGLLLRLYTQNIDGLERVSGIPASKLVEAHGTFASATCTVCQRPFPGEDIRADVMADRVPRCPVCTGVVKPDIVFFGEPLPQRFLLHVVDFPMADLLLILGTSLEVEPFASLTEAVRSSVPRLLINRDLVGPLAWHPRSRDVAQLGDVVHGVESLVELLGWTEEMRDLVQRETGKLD
Procedure: as §1, §2, §3

[3] = target: T4, NanoLuc–SIRT2 fusion protein in HEK293T cells (Homo sapiens, UniProt Q8IXJ6); assay: NanoBRET cellular target engagement assay; assay type: cell-based; details: without digitonin
T4 construct: transfected HEK293T cells expressing the NanoLuc-tagged SIRT250-356 fusion protein were used instead of transient; expressed in transfected cells; host or cells: HEK293T (stably transfected)
T4 sequence (Q8IXJ6 50-356 limits assumed): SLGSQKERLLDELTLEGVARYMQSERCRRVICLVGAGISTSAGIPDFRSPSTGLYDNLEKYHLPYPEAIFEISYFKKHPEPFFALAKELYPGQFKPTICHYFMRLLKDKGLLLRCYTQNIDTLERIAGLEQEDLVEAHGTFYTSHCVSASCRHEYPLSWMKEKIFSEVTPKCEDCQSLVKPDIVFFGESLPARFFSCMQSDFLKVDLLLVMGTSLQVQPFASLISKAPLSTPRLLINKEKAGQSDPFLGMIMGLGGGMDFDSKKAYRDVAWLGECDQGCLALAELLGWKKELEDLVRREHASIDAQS
Procedure: The NanoBRET target engagement assay was performed as previously described[2] with the modification that stably transfected HEK293T cells expressing the NanoLuc-tagged SIRT250-356 fusion protein were used instead of transient transfection. Briefly, HEK293T-NLuc- SIRT250-356 cells were cultured under standard conditions (37 °C, 5% CO2) in DMEM supplemented with 10% fetal bovine serum, 2 mM glutamine, and 300 µg/mL hygromycin as a selection marker. For the assay, cells were trypsinized, resuspended in Opti-MEM® reduced serum medium, and adjusted to a concentration of 2 × 10^5 cells per mL. […]
µM was used. Serially diluted inhibitor and tracer were added to the cell suspension, and 100 μL were seeded into 96-well white, sterile, nonbinding surface plates. To evaluate the cellular permeability of LTDi-1 (6), the non-ionic detergent digitonin (50 µg/ml) was added. Plates were incubated at 37 °C with 5% CO2 for 2 h. For BRET measurements, NanoBRET NanoGlo Substrate (Promega cat. #N1571) was added to the wells according to the […]
All measurements were performed using the 2102 EnVisionTM Multilabel Reader (PerkinElmer), equipped with a 460 nm filter (donor) and a 615 nm filter (acceptor). The BRET ratio was calculated as the ratio of acceptor to donor signal, and data were normalized to vehicle-treated controls. Apparent intracellular binding affinities (EC50 values) were determined by fitting dose-response curves using nonlinear regression analysis in GraphPad Prism. […]

[4] = target: T5, NanoLuc–SIRT2 fusion protein in HEK293T cells (Homo sapiens, UniProt Q8IXJ6); assay: Kinetic NanoBRET washout assay (target residence time); assay type: cell-based; details: 8 µM (10 × EC50), 2 h preincubation, 2 h washout
T5 construct: HEK293T cells stably expressing the NanoLuc-SIRT250-364-fusion target protein were seeded into the coated plates; expressed in transfected cells; host or cells: HEK293T (stably expressing)
T5 sequence (Q8IXJ6 50-364 limits assumed): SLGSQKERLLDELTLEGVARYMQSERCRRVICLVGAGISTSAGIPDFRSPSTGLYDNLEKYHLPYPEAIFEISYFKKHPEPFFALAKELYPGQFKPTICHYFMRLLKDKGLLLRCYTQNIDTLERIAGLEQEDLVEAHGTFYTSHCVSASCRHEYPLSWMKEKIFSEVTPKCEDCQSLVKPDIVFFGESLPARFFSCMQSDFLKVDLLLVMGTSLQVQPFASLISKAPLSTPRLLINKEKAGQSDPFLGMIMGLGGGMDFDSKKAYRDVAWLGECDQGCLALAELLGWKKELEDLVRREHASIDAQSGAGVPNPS

SIRT2 [5] = target: T1, SIRT2; assay: Differential scanning fluorimetry (DSF) / fluorescence thermal shift assay; assay type: binding; details: 10 µM compound, with NAD+ addition
Procedure: Differential scanning fluorimetry (DSF) assay
Differential scanning fluorimetry assays were performed in white 96-well plates (Hard-Shell PCR Plates, BioRad, USA) with a total volume of 20 µL per well and a final DMSO concentration of 5% (v/v), following a published
A solution of 10 µL SIRT2 (final concentration of 6.0 µM) and SYPRO Orange (5x, Sigma-Aldrich, Germany) in assay buffer (25 mM Tris-HCl, 150 mM NaCl, 1 mM DTT, pH 8.0) was mixed with 10 µL of compound and incubated at 25 °C and 350 rpm for 5 min. Where applicable, NAD+ was added to a final concentration of 2.5 mM. Fluorescence
(C1000 Touch™ Thermal Cycler, CFX96™ Real-Time System, BioRad, USA). Melting temperatures were determined using GraphPad Prism, following a published procedure.[6]

[6] = target: BT-6 (biotinylated analogue of compound 6); assay: BLI; SIRT2 (25–400 nM) incubated 1 h with BT-6 (500 nM) without NAD+, then immobilised on streptavidin-coated biosensors; dissociation followed
[7] = target: BT-6 (biotinylated analogue of compound 6); assay: BLI; SIRT2 (25–400 nM) incubated 1 h with BT-6 (500 nM) and NAD+ (500 µM), then immobilised on streptavidin-coated biosensors; dissociation followed
[8] = BSA-Assay, 25 °C, read-out: SIRT2 (demyr.) IC50
[9] = 15 min NAD+ preincubation, read-out: IC50, SIRT2 demyristoylation after NAD+ preincubation

- extent of cellular target engagement [3]: complete target engagement
- inhibition after washout [4]: retained full inhibition throughout
Molecule: CCCCCCCCCCCCc1cn(CCCC[C@H](NC(=O)[C@H](CCCCN)NC(=O)[C@@H]2CCCN2C(C)=O)C(=O)N[C@H](C(N)=O)[C@@H](C)O)nn1 [Compound 6b]

- IC50 (SIRT2 [1]; [9]): 36 ± 2 nM
- IC50 (SIRT2 [1]; [8]): 460 ± 40 nM
- IC50 (SIRT2 [2]): < 100 nM
- IC50 (SIRT1): 230 ± 20 nM
- IC50 (SIRT3): 8200 ± 400 nM
Molecule: CCCCCCCCCCCCc1cn(CCCC[C@H](NC(=O)[C@H](CCCCN)NC(C)=O)C(N)=O)nn1 [Compound 6a]

The remaining lines, values behind:

Molecule: Cc1cc(C)nc(SCC(=O)Nc2ncc(Cc3cccc(OCc4cn(Cc5ccc(OCCN6CCOCC6)cc5)nn4)c3)s2)n1 [Compound 2, reference compound]
- IC50 (SIRT2 [1]; [8]): 50 ± 10 nM
- IC50 (SIRT2 [2]): 120 ± 10 nM
- SIRT1 (deac.) IC50 (SIRT1): n.i.
- SIRT3 (deac.) IC50 (SIRT3): n.i.

Molecule: CCCCCCCCCCCCc1cn(CCC[C@H](NC(=O)[C@H](CCCCN)NC(=O)[C@@H]2CCCN2C(=O)[C@H](CC(C)C)NC(=O)[C@H](C)NC(=O)[C@H](CCC(=O)O)NC(C)=O)C(=O)N[C@H](C(=O)NCC(=O)NCC(N)=O)[C@@H](C)O)nn1 [Compound 5]
- IC50 (SIRT2 [1]; [9]): 760 ± 250 nM
- IC50 (SIRT2 [1]; [8]): 1940 ± 510 nM
- IC50 (SIRT2 [2]): < 100 nM
- IC50 (SIRT1): 14200 ± 1500 nM
- IC50 (SIRT3): 3300 ± 200 nM
- ΔTm at 10 µM (SIRT2 [5]): 9.9 °C

B1: Sirtuin 2 (SIRT2) (enzyme)
chain: MAEPDPSHPLETQAGKVQEAQDSDSDSEGGAAGGEADMDFLRNLFSQTLSLGSQKERLLDELTLEGVARYMQSERCRRVICLVGAGISTSAGIPDFRSPSTGLYDNLEKYHLPYPEAIFEISYFKKHPEPFFALAKELYPGQFKPTICHYFMRLLKDKGLLLRCYTQNIDTLERIAGLEQEDLVEAHGTFYTSHCVSASCRHEYPLSWMKEKIFSEVTPKCEDCQSLVKPDIVFFGESLPARFFSCMQSDFLKVDLLLVMGTSLQVQPFASLISKAPLSTPRLLINKEKAGQSDPFLGMIMGLGGGMDFDSKKAYRDVAWLGECDQGCLALAELLGWKKELEDLVRREHASIDAQSGAGVPNPSTSASPKKSPPPAKDEARTTEREKPQ
- koff [6]: 0.0071 s⁻¹
- koff [7]: 0.00026 s⁻¹

Reference: PMC12723449, “From Pharmacophore to Warhead: NAD^+‐Targeting Triazoles as Mechanism‐Based Sirtuin Inhibitors” (Angewandte Chemie (International Ed. in English), 2025)
